Data: patent US6004992A, “Aminocarboxylic acid fluorobutenyl esters” (Bayer Aktiengesellschaft, priority 1995, dated 1999)

What was measured:
log p (pH 2) = format: physicochemical
[1] = system: Boophilus Microplus Resistent/SP-resistent Parkhurst Strain; test: Test with Boophilus Microplus Resistent/SP-resistent Parkhurst Strain (inhibition of oviposition); format: in vivo; settings: 20 μg/animal; 1 μl injected into the abdomen, adult females; 100% = no tick has deposited eggs
Protocol: Test with Boophilus Microplus Resistent/SP-resistent Parkhurst Strain
Test animals: Adult females which have sucked themselves full
Solvent: Dimethyl sulphoxide
20 mg of active compound are dissolved in 1 ml of dimethyl sulphoxide, and lower concentrations are prepared by diluting in the same solvent.
The test is carried out in 5 replications. 1 μl of the solutions is injected into the abdomen, and the animals are transferred into dishes and kept in an air-conditioned room. The activity is determined via the inhibition of oviposition. 100% means that no tick has deposited eggs.

Meloidogyne incognita = test: Critical Concentration Test/nematodes; format: in vivo; settings: 20 ppm (=mg/l soil), four weeks, 25° C., 100% = infestation avoided completely
Protocol: Critical Concentration Test/nematodes
Test nematode: Meloidogyne incognita
Solvent: 4 parts by weight of acetone
Emulsifier: 1 part by weight of alkylaryl polyglycol ether
To produce a suitable preparation of active compound, 1 part by weight of active compound is mixed with the stated amount of solvent, the stated amount of emulsifier is added and the concentrate is diluted with water to the desired concentration.
The active compound preparation is intimately mixed with soil which is heavily infested with the test nematodes. The active compound concentration in the preparation is immaterial, only the amount of active compound per unit volume of soil, which is given in ppm (=mg/l), matters. The treated soil is transferred into pots, lettuce is sown in, and the pots are kept at a greenhouse temperature of 25° C.
After four weeks, the lettuce roots are checked for infestation with nematodes (root galls) and the efficacy of the active compound in % is determined. The efficacy is 100% when infestation is avoided completely and 0% when the infestation level is just as high as in the control plants in untreated, but equally infested, soil.

Structure (SMILES): O=C(CNC(=O)c1ccccc1)OCCC(F)=C(F)F [Ib-6]
- logD (log p (pH 2)): 2.09

Structure (SMILES): O=C(OCCC(F)=C(F)F)C1CCCN1C(=O)OCc1ccccc1 (stereo not drawn) [Ic-1]
- logD (log p (pH 2)): 3.31

Structure (SMILES): CC(=O)NC(=Cc1cccs1)C(=O)OCCC(F)=C(F)F [Example Ia-4]
- activity (inhibition of oviposition) [1]: 100%

Structure (SMILES): O=CNC1(C(=O)OCCC(F)=C(F)F)CC1 [Ib-14]
- logD (log p (pH 2)): 1.32

Structure (SMILES): C[C@H](NC(=O)c1c(F)cccc1F)C(=O)OCCC(F)=C(F)F [Example Ib-2, 3,4,4-trifluorobut-3-enyl N-(2,6-difluorobenzoyl)-alaninate]
- logD (log p (pH 2)): 2.42

Structure (SMILES): CC(=O)NC(=Cc1ccccc1)C(=O)OCCC(F)=C(F)F [Example Ia-2]
- efficacy of the active compound in % (nematode infestation of lettuce roots, root galls) (Meloidogyne incognita): 100%
